Common to all, as to assay type: in vivo
For assay [1], the system named is Spodoptera littoralis (Egyptian Cotton Leafworm). The assay is described as follows: Spodoptera littoralis cotton leaf disc spray test. The following applies: foliar, 72 h, 200 ppm spray on cotton leaf discs, L1 larvae, mortality, feeding behavior, growth regulation 3 DAT. The text has this: Spodoptera littoralis (Egyptian Cotton Leafworm)
Cotton leaf discs were placed on agar in a 24-well microtiter plate and sprayed with test solutions at an application rate of 200 ppm. After drying, the leaf discs were infested with 5 L1 larvae. The samples were checked for mortality, feeding behavior, and growth regulation 3 days after treatment (DAT).

Assay [2] has as its system Heliothis virescens (Tobacco Budworm). The assay is described as follows: Heliothis virescens egg test on artificial diet in 24-well microtiter plate. The following applies: 96 h, 200 ppm (concentration in well 18 ppm), eggs 0-24 h old, 4 days, egg mortality, larval mortality, growth regulation. How it is done:
(§1) Heliothis virescens (Tobacco Budworm):
Eggs (0-24 h old) were placed in 24-well microtiter plate on artificial diet and treated with test solutions at an application rate of 200 ppm (concentration in well 18 ppm) by pipetting. After an incubation period of 4 days, samples were checked for egg mortality, larval mortality and growth regulation.

The subject of assay [3] is Plutella xylostella (Diamond Back Moth). The assay can be described thus: Plutella xylostella L2 larvae test on artificial diet in 24-well microtiter plate. The note with it: 144 h, 200 ppm (concentration in well 18 ppm), 6 days, larval mortality, growth regulation. How it is done:
Plutella xylostella (Diamond Back Moth):
A 24-well microtiter plate (MTP) with artificial diet was treated with test solutions at an application rate of 200 ppm (concentration in well 18 ppm) by pipetting. After drying, the MTP's were infested with L2 larvae (7-12 per well). After an incubation period of 6 days, samples were checked for larval mortality and growth regulation.

In assay [4] the test system is Diabrotica balteata (Corn Root Worm). The assay can be described thus: Diabrotica balteata L2 larvae test on artificial diet in 24-well microtiter plate. The note with it: 120 h, 200 ppm (concentration in well 18 ppm), 5 days, larval mortality, growth regulation. How it is done:
Diabrotica balteata (Corn Root Worm):
A 24-well microtiter plate (MTP) with artificial diet was treated with test solutions at an application rate of 200 ppm (concentration in well 18 ppm) by pipetting. After drying, the MTP's were infested with larvae (L2) (6-10 per well). After an incubation period of 5 days, samples were checked for larval mortality, and growth regulation.

The subject of assay [5] is Heliothis virescens (Tobacco Budworm). The assay is described as follows: Comparative Heliothis virescens egg test in petri dishes on artificial diet. The following applies: 144 h, 6 days incubation, read-out: percentage of dead larvae; for pest or weed control at 0.8 ppm: concentration 0.8 ppm; for pest or weed control at 1.5 ppm: concentration 1.5 ppm; for pest or weed control at 3 ppm: concentration 3 ppm; for pest or weed control at 6 ppm: concentration 6 ppm. How it is done: This Example illustrates the pesticidal/insecticidal properties of compounds of formula (I) compared to Comparative Compound A and Comparative Compound B. Comparative Compound A and Comparative Compound B were disclosed in WO 2006/003494.
as §1
Fresh eggs (0-24 h old) on filterpaper were placed in petri dishes on top of a layer of artificial diet and treated with diluted test solutions by pipetting. After an incubation period of 6 days, samples were checked for larval mortality and growth regulation. The percentage of dead larvae was assessed.

Each structure is given as a SMILES string.

Turning to `O=C(Nc1cc(F)c(Br)nc1C1CCN(C/C=C/c2ccc(Cl)cc2)CC1)c1ccnc(Cl)c1` [Compound D3, N-{6-bromo-1′-[(E)-3-(4-chloro-phenyl)-allyl]-5-fluoro-1′,2′,3′,4′,5′,6′-hexahydro-[2,4]bipyridinyl-3-yl}-2-chloro-isonicotinamide], the pest or weed control at 200 ppm in assay [1] is at least 80%. In addition, the pest or weed control at 200 ppm in assay [2] was at least 80%. Further, the pest or weed control at 200 ppm in assay [3] is at least 80%. The same compound yielded a pest or weed control at 200 ppm in assay [4] of at least 80%. Further, in assay [5], the pest or weed control at 0.8 ppm was 100%, the pest or weed control at 1.5 ppm is 100%, the pest or weed control at 3 ppm was determined as 100% and the pest or weed control at 6 ppm was determined as 100%.

`O=C(Nc1cc(C(F)(F)F)c(Cl)nc1C1CCN(C/C=C/c2ccc(Cl)cc2)CC1)c1ccnc(Cl)c1` [Compound F2, 2-chloro-N-{6-chloro-1′-[(E)-3-(4-chloro-phenyl)-allyl]-5-trifluoromethyl-1′,2′,3′,4′,5′,6′-hexahydro-[2,4′]bipyridinyl-3-yl}-isonicotinamide] showed a pest or weed control at 200 ppm in assay [1] of at least 80%. Moreover, the pest or weed control at 200 ppm in assay [2] was at least 80%. This compound yielded a pest or weed control at 200 ppm in assay [3] of at least 80%. For the same compound, in assay [4], the pest or weed control at 200 ppm is at least 80%. Further, in assay [5], the pest or weed control at 0.8 ppm stood at 100%, the pest or weed control at 1.5 ppm turned out to be 100%, the pest or weed control at 3 ppm worked out at 100% and the pest or weed control at 6 ppm was 100%.

`O=C(Nc1cc(C(F)(F)F)c(Br)nc1C1CCN(C/C=C/c2ccc(Cl)cc2)CC1)c1ccnc(Cl)c1` [Compound G1, 2-chloro-N-{6-bromo-1′-[(E)-3-(4-chloro-phenyl)-allyl]-5-trifluoromethyl-1′,2′,3′,4′,5′,6′-hexahydro-[2,4′]bipyridinyl-3-yl}-isonicotinamide]: the pest or weed control at 200 ppm in assay [1] is at least 80%. The pest or weed control at 200 ppm in assay [2] is at least 80%. Besides, the pest or weed control at 200 ppm in assay [3] is at least 80%. The compound further showed a pest or weed control at 200 ppm in assay [4] of at least 80%. Moreover, in assay [5], the pest or weed control at 0.8 ppm was determined as 100%, the pest or weed control at 1.5 ppm worked out at 100%, the pest or weed control at 3 ppm stood at 100% and the pest or weed control at 6 ppm came to 100%.

For the compound `O=C(Nc1cc(Cl)c(Br)nc1C1CCN(C/C=C/c2ccc(Cl)cc2)CC1)c1ccnc(Cl)c1` [Compound E7, N-{6-bromo-1′-[(E)-3-(4-chloro-phenyl)-allyl]-5-chloro-1′,2′,3′,4′,5′,6′-hexahydro-[2,4′]bipyridinyl-3-yl}-2-chloro-isonicotinamide], the pest or weed control at 200 ppm in assay [1] was at least 80%. Moreover, the pest or weed control at 200 ppm in assay [2] is at least 80%. Moreover, in assay [3], the pest or weed control at 200 ppm was at least 80%. The pest or weed control at 200 ppm in assay [4] was at least 80%. Moreover, in assay [5], the pest or weed control at 0.8 ppm stood at 100%, the pest or weed control at 1.5 ppm stood at 100%, the pest or weed control at 3 ppm was determined as 100% and the pest or weed control at 6 ppm was found to be 100%.

Turning to `O=C(Nc1cc(F)c(Cl)nc1C1CCN(C/C=C/c2ccc(Cl)cc2)CC1)c1ccnc(Cl)c1` [Compound B1, 2-chloro-N-{6-chloro-1′-[(E)-3-(4-chloro-phenyl)-allyl]-5-fluoro-1′,2′,3′,4′,5′,6′-hexahydro-[2,4′]bipyridinyl-3-yl}-isonicotinamide], the pest or weed control at 200 ppm in assay [1] was at least 80%. The pest or weed control at 200 ppm in assay [2] is at least 80%. Besides, the pest or weed control at 200 ppm in assay [3] was at least 80%. Also, the pest or weed control at 200 ppm in assay [4] is at least 80%. In assay [5], the pest or weed control at 0.8 ppm amounted to 80%, the pest or weed control at 1.5 ppm came to 100%, the pest or weed control at 3 ppm was 100% and the pest or weed control at 6 ppm was determined as 100%.

These data come from patent US8193362B2 (Syngenta Crop Protection LLC, priority 2008, dated 2012).
